Experimental data: patent publication US6093732A, “4-hydroxyquinoline-3-carboxamides and hydrazides as antiviral agents” (Pharmacia & Upjohn Company, priority 1998, dated 2000)

Target: T1, HCMV polymerase (Human cytomegalovirus, UniProt P08546)
T1 construct: made in house; host or cells: recombinant baculovirus-infected SF-9 cells
Test: HCMV polymerase scintillation proximity assay (SPA), modified version
Assay type: biochemical
Conditions: Antiviral Selective Polymerase IC50 Values, CMV, Table 1, modified assay with 4.5 mM DTT, compounds in 100% DMSO
Procedure, shortened: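 Recombinant polymerase (baculovirus/SF-9) in 5.4 mM HEPES pH 7.5, 11.7 mM KCl, 4.5 mM MgCl2, 0.36 mg/ml BSA, 90 nM 3H-dTTP, ±2 mM CHAPS; started with 6 nM biotinylated poly(dA)-oligo(dT), 25° C or 37° C, EDTA-stopped in linear range (30 min for HCMV). Streptavidin-SPA read; IC50 by linear regression. Modified version: 100% DMSO compound dilution, 4.5 mM DTT added.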

T1 sequence (P08546 whole entry): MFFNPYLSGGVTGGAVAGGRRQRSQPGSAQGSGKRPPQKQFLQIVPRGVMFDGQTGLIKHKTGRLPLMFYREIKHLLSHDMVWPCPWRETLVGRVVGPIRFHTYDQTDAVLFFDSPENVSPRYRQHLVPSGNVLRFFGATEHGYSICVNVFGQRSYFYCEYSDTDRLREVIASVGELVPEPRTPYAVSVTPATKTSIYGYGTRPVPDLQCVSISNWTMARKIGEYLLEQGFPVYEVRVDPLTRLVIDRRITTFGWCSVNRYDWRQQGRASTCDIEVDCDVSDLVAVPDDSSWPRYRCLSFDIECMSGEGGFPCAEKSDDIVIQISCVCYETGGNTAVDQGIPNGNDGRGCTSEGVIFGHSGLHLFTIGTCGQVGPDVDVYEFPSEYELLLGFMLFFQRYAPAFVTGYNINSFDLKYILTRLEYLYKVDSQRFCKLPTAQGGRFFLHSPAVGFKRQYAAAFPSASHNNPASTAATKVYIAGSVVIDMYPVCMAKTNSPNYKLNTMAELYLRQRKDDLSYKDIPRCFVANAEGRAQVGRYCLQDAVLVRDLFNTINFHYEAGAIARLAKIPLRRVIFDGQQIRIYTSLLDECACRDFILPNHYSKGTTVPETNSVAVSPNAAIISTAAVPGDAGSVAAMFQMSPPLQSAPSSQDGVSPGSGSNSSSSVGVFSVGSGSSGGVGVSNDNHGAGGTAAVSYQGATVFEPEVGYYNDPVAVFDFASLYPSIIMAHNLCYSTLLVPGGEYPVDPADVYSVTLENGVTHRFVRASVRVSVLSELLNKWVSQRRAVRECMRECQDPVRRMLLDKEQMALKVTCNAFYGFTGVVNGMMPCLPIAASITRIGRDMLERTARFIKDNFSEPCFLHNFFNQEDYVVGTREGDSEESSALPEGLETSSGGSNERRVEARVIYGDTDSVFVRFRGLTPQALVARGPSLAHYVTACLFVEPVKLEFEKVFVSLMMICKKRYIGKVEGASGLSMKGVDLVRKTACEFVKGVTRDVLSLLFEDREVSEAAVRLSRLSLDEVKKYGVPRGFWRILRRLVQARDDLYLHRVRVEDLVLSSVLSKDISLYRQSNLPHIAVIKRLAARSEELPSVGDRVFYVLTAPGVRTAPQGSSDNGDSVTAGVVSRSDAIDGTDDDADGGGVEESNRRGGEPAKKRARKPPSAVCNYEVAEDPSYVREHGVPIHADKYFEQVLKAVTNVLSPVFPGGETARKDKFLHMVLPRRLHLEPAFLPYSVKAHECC

Row | Compound | IC50
1 | O=C(NCc1ccc(Cl)cc1)c1cnc2c(F)cc(S(=O)(=O)NCCBr)cc2c1O [Example 244, 6-{[(2-bromoethyl)amino]sulfonyl}-N-(4-chlorobenzyl)-8-fluoro-4-hydroxy-3-quinolinecarboxamide] | 19 µM
2 | O=C(NCc1ccc(Cl)cc1)c1cnc2c(F)cc(S(=O)(=O)NCCCl)cc2c1O [Example 245, N-(4-chlorobenzyl)-6-{[(2-chloroethyl)amino]sulfonyl}-8-fluoro-4-hydroxy-3-quinolinecarboxamide] | 13.3 µM

Same assay, conditions: CMV polymerase; Table 1; modified assay with 4.5 mM DTT, compounds in 100% DMSO; read-out: Antiviral Selective Polymerase IC50 Values, CMV

Row | Compound | IC50
3 | O=C(NCc1ccc(Cl)cc1)c1cnc2c(F)cc(S(=O)(=O)NCCc3ccccc3)cc2c1O [Example 230, N-(4-chlorobenzyl)-8-fluoro-4-hydroxy-6-[(phenethylamino)sulfonyl]-3-quinolinecarboxamide] | 9.6 µM
4 | O=C(NCc1ccc(Cl)cc1)c1cnc2c(F)cc(S(=O)(=O)NCCc3ccc(Cl)cc3)cc2c1O [Example 231, N-(4-chlorobenzyl)-6-{[(4-chlorophenethyl)amino]sulfonyl}-8-fluoro-4-hydroxy-3-quinolinecarboxamide] | 8.3 µM
5 | C#CCNS(=O)(=O)c1cc(F)c2ncc(C(=O)NCc3ccc(Cl)cc3)c(O)c2c1 [Example 232, N-(4-chlorobenzyl)-8-fluoro-4-hydroxy-6-[(2-propynylamino)sulfonyl]-3-quinolinecarboxamide] | 23.4 µM
6 | CC(C)CCNS(=O)(=O)c1cc(F)c2ncc(C(=O)NCc3ccc(Cl)cc3)c(O)c2c1 [Example 233, N-(4-chlorobenzyl)-8-fluoro-4-hydroxy-6-[(isopentylamino)sulfonyl]-3-quinolinecarboxamide] | 11.2 µM
7 | O=C(NCc1ccc(Cl)cc1)c1cnc2c(F)cc(S(=O)(=O)NCCCc3ccccc3)cc2c1O [Example 234, N-(4-chlorobenzyl)-8-fluoro-4-hydroxy-6-{[(3-phenylpropyl)amino]sulfonyl}-3-quinolinecarboxamide] | 8.9 µM
8 | CCCCCNS(=O)(=O)c1cc(F)c2ncc(C(=O)NCc3ccc(Cl)cc3)c(O)c2c1 [Example 235, N-(4-chlorobenzyl)-8-fluoro-4-hydroxy-6-[(pentylamino)sulfonyl]-3-quinolinecarboxamide] | 11.8 µM
9 | O=C(NCc1ccc(Cl)cc1)c1cnc2c(F)cc(S(=O)(=O)NCc3cc(C(F)(F)F)cc(C(F)(F)F)c3)cc2c1O [Example 236, 6-({[3,5-bis(trifluoromethyl)benzyl]amino}sulfonyl)-N-(4-chlorobenzyl)-8-fluoro-4-hydroxy-3-quinolinecarboxamide] | 6.6 µM
10 | O=C(NCc1ccc(Cl)cc1)c1cnc2c(F)cc(S(=O)(=O)NCCC3=CCCCC3)cc2c1O [Example 237, N-(4-chlorobenzyl)-6-({[2-(1-cyclohexen-1-yl)ethyl]amino}-sulfonyl)-8-fluoro-4-hydroxy-3-quinolinecarboxamide] | 6.9 µM
11 | O=C(NCc1ccc(Cl)cc1)c1cnc2c(F)cc(S(=O)(=O)NCCNc3cccc4ccccc34)cc2c1O [Example 238, N-(4-chlorobenzyl)-8-fluoro-4-hydroxy-6-({[2-(1-naphthylamino)ethyl]amino}sulfonyl)-3-quinolinecarboxamide] | 1.6 µM
12 | CNS(=O)(=O)c1cc(F)c2ncc(C(=O)NCc3ccc(Cl)cc3)c(O)c2c1 [Example 239, N-(4-chlorobenzyl)-8-fluoro-4-hydroxy-6-[(methylamino)sulfonyl]-3-quinolinecarboxamide] | 13.1 µM
13 | N#CCNS(=O)(=O)c1cc(F)c2ncc(C(=O)NCc3ccc(Cl)cc3)c(O)c2c1 [Example 240, N-(4-chlorobenzyl)-6-{[(cyanomethyl)amino]sulfonyl}-8-fluoro-4-hydroxy-3-quinolinecarboxamide] | 11.4 µM
14 | COc1ccc(CNS(=O)(=O)c2cc(F)c3ncc(C(=O)NCc4ccc(Cl)cc4)c(O)c3c2)c(OC)c1 [Example 241, N-(4-chlorobenzyl)-6-{[(2,4-dimethoxybenzyl)amino]sulfonyl}-8-fluoro-4-hydroxy-3-quinolinecarboxamide] | 16 µM
15 | O=C(NCc1ccc(Cl)cc1)c1cnc2c(F)cc(S(=O)(=O)NCc3cccc(I)c3)cc2c1O [Example 242, N-(4-chlorobenzyl)-8-fluoro-4-hydroxy-6-{[(3-iodobenzyl)amino]sulfonyl}-3-quinolinecarboxamide] | 8.4 µM
16 | O=C(NCc1ccc(Cl)cc1)c1cnc2c(F)cc(S(=O)(=O)NCC(F)(F)F)cc2c1O [Example 243, N-(4-chlorobenzyl)-8-fluoro-4-hydroxy-6-{[(2,2,2-trifluoroethyl)amino]sulfonyl}-3-quinolinecarboxamide] | 15.5 µM
17 | O=C(NCc1ccc(Cl)cc1)c1cnc2c(F)cc(S(=O)(=O)NCCc3ccc(O)c(O)c3)cc2c1O [Example 246, N-(4-chlorobenzyl)-6-{[(3,4-dihydroxyphenethyl)amino]-sulfonyl}-8-fluoro-4-hydroxy-3-quinolinecarboxamide] | 8.6 µM
18 | CCSCCNS(=O)(=O)c1cc(F)c2ncc(C(=O)NCc3ccc(Cl)cc3)c(O)c2c1 [Example 247] | 10.2 µM

Row | Compound | IC50
19 | O=C(NCc1ccc(Cl)cc1)c1cnc2c(F)cc(S(=O)(=O)NCCCBr)cc2c1O [Example 248, 6-{[(3-bromopropyl)amino]sulfonyl}-N-(4-chlorobenzyl)-8-fluoro-4-hydroxy-3-quinolinecarboxamide] | 11.6 µM
20 | NS(=O)(=O)c1ccc(CNS(=O)(=O)c2cc(F)c3ncc(C(=O)NCc4ccc(Cl)cc4)c(O)c3c2)cc1 [Example 249, 6-({[4-(aminosulfonyl)benzyl]amino}sulfonyl)-N-(4-chlorobenzyl)-8-fluoro-4-hydroxy-3-quinolinecarboxamide] | 7.6 µM
21 | O=C(NCc1ccc(Cl)cc1)c1cnc2c(F)cc(S(=O)(=O)NCCN(CCO)CCO)cc2c1O [Example 250, 6-[({2-[bis(2-hydroxyethyl)amino]ethyl}amino)sulfonyl]-N-(4-chlorobenzyl)-8-fluoro-4-hydroxy-3-quinolinecarboxamide] | 45.2 µM
22 | CCSCCNS(=O)(=O)c1cc(F)c2ncc(C(=O)NCc3ccc(Cl)cc3)c(O)c2c1 [Example 251, N-(4-chlorobenzyl)-6-({[2-(ethylsulfanyl)ethyl]amino}sulfonyl)-8-fluoro-4-hydroxy-3-quinolinecarboxamide] | 18.7 µM
23 | Cc1ccc(CNS(=O)(=O)c2cc(F)c3ncc(C(=O)NCc4ccc(Cl)cc4)c(O)c3c2)cc1C [Example 252, N-(4-chlorobenzyl)-6-{[(3,4-dimethylbenzyl)amino]sulfonyl}-8-fluoro-4-hydroxy-3-quinolinecarboxamide] | 18.9 µM
24 | O=C(NCc1ccc(Cl)cc1)c1cnc2c(F)cc(S(=O)(=O)NCC3CC3)cc2c1O [Example 253, N-(4-chlorobenzyl)-6-{[(cyclopropylmethyl)amino]sulfonyl}-8-fluoro-4-hydroxy-3-quinolinecarboxamide] | 20.6 µM
25 | O=C(NCc1ccc(Cl)cc1)c1cnc2c(F)cc(S(=O)(=O)NCc3ccc(Br)cc3)cc2c1O [Example 254, 6-{[(4-bromobenzyl)amino]sulfonyl}-N-(4-chlorobenzyl)-8-fluoro-4-hydroxy-3-quinolinecarboxamide] | 14.7 µM
26 | O=C(NCc1ccc(Cl)cc1)c1cnc2c(F)cc(S(=O)(=O)NCCc3cccs3)cc2c1O [Example 255, N-(4-chlorobenzyl)-8-fluoro-4-hydroxy-6-({[2-(2-thienyl)ethyl]amino}sulfonyl)-3-quinolinecarboxamide] | 12.1 µM
27 | O=C(NCc1ccc(Cl)cc1)c1cnc2c(F)cc(S(=O)(=O)NCCOc3ccccc3)cc2c1O [Example 256, N-(4-chlorobenzyl)-8-fluoro-4-hydroxy-6-{[(2-phenoxyethyl)amino]sulfonyl}-3-quinolinecarboxamide] | 9.3 µM
28 | CC(C)(C)OC(=O)CNS(=O)(=O)c1cc(F)c2ncc(C(=O)NCc3ccc(Cl)cc3)c(O)c2c1 [Example 257, tert-butyl 2-{[(3-{[(4-chlorobenzyl)amino]carbonyl}-8-fluoro-4-hydroxy-6-quinolinyl)sulfonyl]amino}acetate] | 16.3 µM
29 | CC(C)(C)OC(=O)CCNS(=O)(=O)c1cc(F)c2ncc(C(=O)NCc3ccc(Cl)cc3)c(O)c2c1 [Example 258, tert-butyl 3-{[(3-{[(4-chlorobenzyl)amino]carbonyl}-8-fluoro-4-hydroxy-6-quinolinyl)sulfonyl]amino}propanoate] | 15.2 µM
30 | O=C(NCc1ccc(Cl)cc1)c1cnc2c(F)cc(S(=O)(=O)NCc3cccc(OC(F)(F)F)c3)cc2c1O [Example 259, N-(4-chlorobenzyl)-8-fluoro-4-hydroxy-6-({[3-(trifluoro-methoxy)benzyl]amino}sulfonyl)-3-quinolinecarboxamide] | 6.1 µM
31 | O=C(NCc1ccc(Cl)cc1)c1cnc2c(F)cc(S(=O)(=O)NCc3ccccc3Sc3ccccc3CO)cc2c1O [Example 260] | 5.7 µM
32 | O=C(NCc1ccc(Cl)cc1)c1cnc2c(F)cc(S(=O)(=O)NCc3ccc(-c4csnn4)cc3)cc2c1O [Example 261, N-(4-chlorobenzyl)-8-fluoro-4-hydroxy-6-({[4-(1,2,3-thiadiazol-4-yl)benzyl]amino}sulfonyl)-3-quinolinecarboxamide] | 15.1 µM
33 | O=C(NCc1ccc(Cl)cc1)c1cnc2c(F)cc(S(=O)(=O)NCc3ccc(Cl)cc3F)cc2c1O [Example 262, N-(4-chlorobenzyl)-6-{[(4-chloro-2-fluorobenzyl)amino]sulfonyl}-8-fluoro-4-hydroxy-3-quinolinecarboxamide] | 9.9 µM
34 | O=C(NCc1ccc(Cl)cc1)c1cnc2c(F)cc(S(=O)(=O)NCCSCCO)cc2c1O [Example 263, N-(4-chlorobenzyl)-8-fluoro-4-hydroxy-6-[({2-[(2-hydroxyethyl)-sulfanyl]ethyl}amino)sulfonyl]-3-quinolinecarboxamide] | 23.1 µM
